What was measured:
[1] = tested on: pY641-STAT6 in Peripheral Blood Mononuclear Cells (PBMC); assay: MSD-pSTAT-PBMC Assay (pSTAT6, IL-4 stimulated); assay type: cell-based, Human; details: compound 3 hrs, then 1 ng/mL IL-4 for 10 min
How it was run: (§1)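 Human PBMCs were preincubated 3 h with compound, then stimulated 10 min with 10 ng/mL IL-6 (pY705-STAT3) or 1 ng/mL IL-4 (pY641-STAT6). Lysates were read by MSD sandwich immunoassay, capturing total STAT and detecting phospho-STAT. Signal was unstimulated-subtracted and DMSO-normalised, with variable-slope IC50 binned A–D.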

[2] = tested on: pY705-STAT3 in Peripheral Blood Mononuclear Cells (PBMC); assay: MSD-pSTAT-PBMC Assay (pSTAT3, IL-6 stimulated); assay type: cell-based, Human; details: compound 3 hrs, then 10 ng/mL IL-6 for 10 min
How it was run: as §1

SMILES	IC50 ([1]; Homo sapiens)	IC50 ([2]; Homo sapiens)	IC50 [1]	IC50 [2]
CC(C)(C)C(=O)SCCOP(=O)(OCCSC(=O)C(C)(C)C)C(F)(F)c1ccc2ccc(C(=O)N[C@H]3CN(CC(F)F)CC[C@H]4CC[C@@H](C(=O)N5C[C@@H](C#N)[C@H](c6ccccc6)C5)N4C3=O)cc2c1 (single isomer, unassigned) [Compound 342, S,S′-(((((7-(((5S,8S,10aR)-8-((3S,4R or 3R,4S)-3-cyano-4-phenylpyrrolidine-1-carbonyl)-3-(2,2-difluoroethyl)-6-oxodecahydropyrrolo[1,2-a][1,5]diazocin-5-yl)carbamoyl)naphthalen-2-yl)difluoromethyl)phosphoryl)bis(oxy))bis (ethane-2,1-diyl))bis(2,2-dimethylprop anethioate)]	0.1 to 1 µM	> 3 µM	–	–
CC(=O)N1CC[C@H]2CC[C@@H](C(=O)N(C)c3ccccc3)N2C(=O)[C@@H](NC(=O)c2cc3cc(C(F)(F)P(=O)(OCOC(=O)OCC(C)C)OCOC(=O)OCC(C)C)ccc3s2)C1 [Compound 284, ((((2-(((5S,8S, 10aR)-3-acetyl-8-(methyl (phenyl)carbamoyl)-6-oxodecahydro-pyrrolo[1,2-a][1,5]diazocin-5-yl)carbamoyl)benzo[b]thiophen-5-yl)difluoro-methyl)phos-phoryl)bis(oxy)) bis(methylene) diisobutyl bis(carbonate)]	≤ 0.1 µM	0.1 to 1 µM	–	–
COCC(C)(C)OC(=O)OCOP(=O)(OCOC(=O)OC(C)(C)COC)C(F)(F)c1ccc2sc(C(=O)N[C@H]3CN(C(C)=O)CC[C@H]4CC[C@@H](C(=O)N(C)c5ccccc5)N4C3=O)cc2c1 [Compound 287, ((((2-(((5S, 8S,10aR)-3-acetyl-8-(methyl (phenyl)carbamoyl)-6-oxodecahydro-pyrrolo[1,2-a][1,5]diazocin-5-yl)carbamoyl)benzo[b]thiophen-5-yl)difluoro-methyl)phosphoryl)bis(oxy)) bis(methylene) bis(1-methoxy-2-methylpropan-2-yl) bis(carbonate)]	> 3 µM	> 3 µM	–	–
CC(=O)N1CC[C@H]2CC[C@@H](C(=O)N(C)c3ccc(C(C)(C)C)cc3)N2C(=O)[C@@H](NC(=O)c2cc3cc(C(F)(F)P(=O)(OCOC(=O)C(C)(C)C)OCOC(=O)C(C)(C)C)ccc3s2)C1 [Compound 319, ((((2-(((5S,8S, 10aR)-3-acetyl-8-((4-(tert-butyl)phenyl) (methyl)carbamoyl)-6-oxodecahydro-pyrrolo[1,2-a][1,5]diazocin-5-yl)carbamoyl)benzo[b]thiophen-5-yl)difluoro-methyl)phos-phoryl)bis(oxy)) bis(methylene) bis(2,2-dimethylpro-panoate)]	≤ 0.1 µM	0.1 to 1 µM	–	–
CCCC(=O)SCCOP(=O)(OCOC(=O)OC(C)C)C(F)(F)c1ccc2ccc(C(=O)N[C@H]3CN(C(C)=O)CC[C@H]4CC[C@@H](C(=O)N5C[C@H](c6cc[nH]c(=O)c6)[C@@H](C#N)C5)N4C3=O)cc2c1 (single isomer, unassigned) [Compound 303, S-(2-((((7-(((5S,8S, 10aR)-3-acetyl-8-((3R,4S or 3S,4R)-3-cyano-4-(2-oxo-1,2-dihydro-pyridin-4-yl)pyrrolidine-1-carbonyl)-6-oxodecahydro-pyrrolo[1,2-a][1,5]diazocin-5-yl)carbamoyl)naphthalen-2-yl)difluoro-methyl)(((iso-propoxy-carbonyl)oxy)methoxy)phosphoryl)oxy)ethyl) butanethioate]	0.1 to 1 µM	1 to 3 µM	–	–
CC(=O)N1CC[C@H]2CC[C@@H](C(=O)N3CCC[C@H]3Cc3ccccc3)N2C(=O)[C@@H](NC(=O)c2cc3cc(C(F)(F)P(=O)(OCOC(=O)C(C)(C)C)OCOC(=O)C(C)(C)C)ccc3s2)C1 [Compound 320, ((((2-(((5S,8S, 10aR)-3-acetyl-8-((S)-2-benzyl-pyrrolidine-1-carbonyl)-6-oxodecahydro-pyrrolo[1,2-a][1,5]diazocin-5-yl)carbamoyl)benzo[b]thiophen-5-yl)difluoro-methyl)phos-phoryl)bis(oxy)) bis(methylene) bis(2,2-dimethylpro-panoate)]	≤ 0.1 µM	0.1 to 1 µM	–	–
CC(C)(C)C(=O)OCOP(=O)(OCOC(=O)C(C)(C)C)C(F)(F)c1ccc2ccc(C(=O)NC3CN(CC(F)F)CCC4CCC(C(=O)N5CCC(c6ccccc6)C(C#N)C5)N4C3=O)cc2c1 [Compound 345, ((((7-(((5S,8S,10aR)-8-((rel-trans)-3-cyano-4-phenylpiperidine-1-carbonyl)-3-(2,2-difluoroethyl)-6-oxodecahydropyrrolo[1,2-a][1,5]diazocin-5-yl)carbamoyl)naphthalen-2-yl)difluoromethyl)phosphoryl)bis(oxy)) bis(methylene) bis(2,2-dimethylpropanoate)]	–	–	0.1 to 1 µM	1 to 3 µM
CC(=O)N1CC[C@H]2CC[C@@H](C(=O)N(C)C3CCN(S(C)(=O)=O)CC3)N2C(=O)[C@@H](NC(=O)c2cc3cc(C(F)(F)P(=O)(OCOC(=O)C(C)(C)C)OCOC(=O)C(C)(C)C)ccc3s2)C1 [Compound 312, ((((2-(((5S, 8S,10aR)-3-acetyl-8-(methyl(1-(methyl-sulfonyl)piperidin-4-yl)carbamoyl)-6-oxodecahydro-pyrrolo[1,2-a][1,5]diazocin-5-yl)carbamoyl)benzo[b]thiophen-5-yl)difluoro-methyl)phos-phoryl)bis(oxy))bis (methylene) bis(2,2-dimethylpro-panoate)]	0.1 to 1 µM	> 3 µM	–	–
CC(C)(C)C(=O)OCOP(=O)(OCOC(=O)C(C)(C)C)C(F)(F)c1ccc2ccc(C(=O)N[C@H]3CN(CC(F)F)CC[C@H]4CC[C@@H](C(=O)N5C[C@@H](C#N)[C@H](c6ccccc6)C5)N4C3=O)cc2c1 (single isomer, unassigned) [Compound 346]	≤ 0.1 µM	0.1 to 1 µM	–	–
COC(=O)N1CC[C@H]2CC[C@@H](C(=O)N3C[C@H](c4ccccc4)[C@@H](C#N)C3)N2C(=O)[C@@H](NC(=O)c2cc3cc(C(F)(F)P(=O)(OCOC(=O)C(C)(C)C)OCOC(=O)C(C)(C)C)ccc3s2)C1 (relative stereo) [Compound 349, ((((2-(((5S,8S,10aR)-8-((rel-trans)-3-cyano-4-phenylpyrrolidine-1-carbonyl)-3-(methoxycarbonyl)-6-oxodecahydropyrrolo[1,2-a][1,5]diazocin-5-yl)carbamoyl)benzo[b]thiophen-5-yl)difluoromethyl)phosphoryl)bis(oxy)) bis(methylene) bis(2,2-dimethylpropanoate)]	≤ 0.1 µM	0.1 to 1 µM	–	–
CCCC(=O)SCCOP(=O)(OCOC(=O)OC(C)C)C(F)(F)c1ccc2ccc(C(=O)N[C@H]3CCN(CC(F)F)C[C@H]4CC[C@@H](C(=O)N5CC(c6cc[nH]c(=O)c6)CC56CC6)N4C3=O)cc2c1 (stereo partly drawn) [Compound 334, S-(2-((((7-(((5S,8S,10aR)-2-(2,2-difluoroethyl)-6-oxo-8-(6-(2-oxo-1,2-dihydropyridin-4-yl)-4-azaspiro[2.4]heptane-4-carbonyl)decahydropyrrolo[1,2-a][1,4]diazocin-5-yl)carbamoyl)naphthalen-2-yl)difluoromethyl) (((isopropoxycarbonyl)oxy)methoxy)phosphoryl)oxy)ethyl)butanethioate]	≤ 0.1 µM	0.1 to 1 µM	–	–
CCCC(=O)SCCOP(=O)(OCCSC(=O)CCC)C(F)(F)c1ccc2ccc(C(=O)N[C@H]3CCN(CC(F)F)C[C@H]4CC[C@@H](C(=O)N5CC(c6cc[nH]c(=O)c6)CC56CC6)N4C3=O)cc2c1 (stereo partly drawn) [Compound 335, S,S′-(((((7-(((5S,8S,10aR)-2-(2,2-difluoroethyl)-6-oxo-8-(6-(2-oxo-1,2-dihydropyridin-4-yl)-4-azaspiro[2.4]heptane-4-carbonyl)decahydropyrrolo [1,2-a][1,4]diazocin-5-yl)carbamoyl)naphthalen-2-yl)difluoromethyl)phosphoryl)bis(oxy))bis(ethane-2,1-diyl))dibutanethioate]	≤ 0.1 µM	1 to 3 µM	–	–
CC(=O)N1CC[C@H]2CC[C@@H](C(=O)N3C[C@@H](C#N)[C@H](c4cc[nH]c(=O)c4)C3)N2C(=O)[C@@H](NC(=O)c2ccc3ccc(C(F)(F)P(=O)(OCCSC(=O)CC(C)C)OCCSC(=O)CC(C)C)cc3c2)C1 (single isomer, unassigned) [Compound 306, S,S′-(((((7-(((5S,8S, 10aR)-3-acetyl-8-((3S,4R or 3r,4S)-3-cyano-4-(2-oxo-1,2-dihydro-pyridin-4-yl)pyrrolidine-1-carbonyl)-6-oxodecahydro-pyrrolo[1,2-a][1,5]diazocin-5-yl)carbamoyl)naphthalen-2-yl)difluoro-methyl)phos-phoryl)bis(oxy))bis(ethane-2,1-diyl)) bis(3-methylbutane-thioate)]	1 to 3 µM	> 3 µM	–	–
CCN1CC[C@H]2CC[C@@H](C(=O)N3C[C@@H](C#N)[C@H](c4ccccc4)C3)N2C(=O)[C@@H](NC(=O)c2ccc3ccc(C(F)(F)P(=O)(OCCSC(=O)C(C)(C)C)OCCSC(=O)C(C)(C)C)cc3c2)C1 (single isomer, unassigned) [Compound 343, S,S′-(((((7-(((5S,8S,10aR)-8-((3S,4R or 3R,4S)-3-cyano-4-phenylpyrrolidine-1-carbonyl)-3-ethyl-6-oxodecahydropyrrolo[1,2-a][1,5]diazocin-5-yl)carbamoyl)naphthalen-2-yl)difluoromethyl)phosphoryl)bis(oxy))bis(ethane-2,1-diyl))bis(2,2-dimethylpropanethioate)]	0.1 to 1 µM	1 to 3 µM	–	–
